Experiments:
recombinant GTase A911 = target: T1, recombinant GTase A911 (Arabidopsis thaliana, UniProt O22182); assay: Kinetic studies (Michaelis-Menten) on recombinant GTase producing glucose esters; conditions: glucose ester formation
T1 sequence (O22182 1-456): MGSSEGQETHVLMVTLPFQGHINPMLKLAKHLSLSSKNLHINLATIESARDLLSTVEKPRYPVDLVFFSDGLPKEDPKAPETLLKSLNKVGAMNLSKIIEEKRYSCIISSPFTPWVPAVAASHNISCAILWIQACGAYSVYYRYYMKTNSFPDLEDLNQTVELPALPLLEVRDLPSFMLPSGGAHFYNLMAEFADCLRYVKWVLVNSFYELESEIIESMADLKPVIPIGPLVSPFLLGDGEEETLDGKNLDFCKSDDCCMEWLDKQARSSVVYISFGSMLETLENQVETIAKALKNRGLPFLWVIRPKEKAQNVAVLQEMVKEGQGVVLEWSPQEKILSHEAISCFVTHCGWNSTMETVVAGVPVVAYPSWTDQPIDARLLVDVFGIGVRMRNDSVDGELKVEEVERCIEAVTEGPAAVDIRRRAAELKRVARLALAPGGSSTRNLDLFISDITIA

recombinant GTase A961 = target: T2, recombinant GTase A961 (Arabidopsis thaliana, UniProt O82381); assay: Specific activity of recombinant GTase producing O-glucosides against lignin precursors (HPLC); type: biochemical; conditions: 30° C.; ND = not detected
T2 construct: made in house; host or cells: E. coli
T2 sequence (O82381 1-481): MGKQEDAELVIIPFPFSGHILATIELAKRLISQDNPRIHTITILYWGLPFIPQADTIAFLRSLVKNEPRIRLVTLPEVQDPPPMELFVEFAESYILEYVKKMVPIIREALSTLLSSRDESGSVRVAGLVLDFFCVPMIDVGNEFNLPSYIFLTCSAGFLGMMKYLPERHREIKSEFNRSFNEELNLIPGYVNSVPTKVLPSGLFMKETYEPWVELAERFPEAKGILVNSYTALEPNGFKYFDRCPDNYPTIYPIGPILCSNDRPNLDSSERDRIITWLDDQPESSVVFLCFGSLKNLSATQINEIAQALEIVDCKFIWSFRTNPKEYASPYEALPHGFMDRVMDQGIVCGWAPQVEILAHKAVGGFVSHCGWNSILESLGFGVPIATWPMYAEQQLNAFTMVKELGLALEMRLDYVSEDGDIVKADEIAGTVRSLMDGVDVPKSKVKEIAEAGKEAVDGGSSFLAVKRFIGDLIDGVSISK

recombinant GTase A962 = target: T3, recombinant GTase A962 (Arabidopsis thaliana, UniProt O82382); assay: as above; type: biochemical; conditions: 30° C.; ND = not detected
T3 construct: made in house; host or cells: E. coli
T3 sequence (O82382 1-474): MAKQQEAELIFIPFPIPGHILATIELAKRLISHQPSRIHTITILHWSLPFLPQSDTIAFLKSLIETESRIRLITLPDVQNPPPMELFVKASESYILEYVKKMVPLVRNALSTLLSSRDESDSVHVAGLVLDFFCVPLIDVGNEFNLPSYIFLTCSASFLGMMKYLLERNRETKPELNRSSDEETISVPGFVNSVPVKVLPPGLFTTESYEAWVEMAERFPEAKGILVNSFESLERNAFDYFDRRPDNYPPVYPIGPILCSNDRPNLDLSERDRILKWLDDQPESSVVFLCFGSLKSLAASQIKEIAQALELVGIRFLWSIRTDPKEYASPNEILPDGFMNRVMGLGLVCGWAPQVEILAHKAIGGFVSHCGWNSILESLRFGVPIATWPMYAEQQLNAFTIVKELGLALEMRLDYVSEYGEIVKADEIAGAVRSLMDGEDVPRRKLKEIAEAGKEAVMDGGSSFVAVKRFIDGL

In the case of COc1cc(/C=C/C(=O)O)ccc1O [Ferulic acid, ferulic acid], the “Vmax (A911)” value (recombinant GTase A911) is reported as 6.91 nkat/mg.
With O=C(O)/C=C/c1ccc(O)cc1 [p-coumaric acid] the “Specific activity of A961 (substrate converted to 4-O-glucoside)” value (recombinant GTase A961) was 0.01 nkat/mg and the “Specific activity of A962 (substrate converted to 4-O-glucoside)” value (recombinant GTase A962) was 0.01 nkat/mg.
